Experimental data from US20110190365A1, “Insecticidal 4-phenyl-1H-pyrazoles” (Bayer Crop Science AG, priority 2008, published 2011).

Assay: log P by HPLC on a reversed-phase column (C18), EEC Directive 79/831 Annex V.A8
Type: physicochemical
Details: HCOOH
Method: The stated log P values were determined in accordance with EEC Directive 79/831 Annex V.A8 by HPLC (High Performance Liquid Chromatography) using a reversed-phase column (C18).

| SMILES | log P (HCOOH) |
| --- | --- |
| Cc1cc(-n2nc(C(F)(F)F)c(-c3cc(Cl)cc(Cl)c3)c2I)ccc1C(=O)NC(C)C(F)(F)F (stereo not shown) [I-A-Q2-026] | I-A-Q2-026: log P (HCOOH): 5.44 |
| Cc1cc(-n2nc(C(F)(F)F)c(-c3cc(Cl)cc(Cl)c3)c2N)ccc1C(=O)NC1(c2ccccn2)CC1 [I-A-Q2-244] | I-A-Q2-244: log P (HCOOH): 3.68 |
| CC(NC(=O)c1ccc(-n2nc(C(F)(F)F)c(-c3ccc(Cl)c(F)c3)c2N)cc1)C(F)(F)F (stereo not shown) [I-A-Q2-169] | I-A-Q2-169: log P (HCOOH): 3.78 |
| CC(NC(=O)c1ccc(-n2nc(C(F)(F)F)c(-c3cccc(Br)c3)c2N)cc1)C(F)(F)F (stereo not shown) [I-A-Q2-172] | I-A-Q2-172: log P (HCOOH): 3.73 |
| CC(NC(=O)c1ccc(-n2nc(C(F)(F)F)c(-c3cc(Cl)cc(Cl)c3)c2N)nc1)c1ccccn1 (stereo not shown) [I-A-Q2-102] | I-A-Q2-102: log P (HCOOH): 4.06 |
| Cc1cc(-n2nc(C(F)(F)F)c(-c3ccc(F)c(F)c3)c2N)ccc1C(=O)NCC(F)(F)C(F)F [I-A-Q2-312] | I-A-Q2-312: log P (HCOOH): 3.42 |
| Nc1c(-c2ccccc2Cl)c(C(F)(F)F)nn1-c1ccc(C(=O)NCc2ncccn2)cc1 [I-A-Q2-080] | I-A-Q2-080: log P (HCOOH): 2.38 |
| COc1cccc(C(F)(F)c2nn(-c3ccc(C(=O)NCC(F)(F)C(F)F)c(C)c3)c(N)c2-c2cc(Cl)cc(C(F)(F)F)c2)c1 [I-A-Q2-288] | I-A-Q2-288: log P (HCOOH): 4.40 |
| Cc1cc(-n2nc(C(F)(F)F)c(-c3ccc(Br)cc3)c2N)ccc1C(=O)NCC(F)(F)C(F)F [I-A-Q2-303] | I-A-Q2-303: log P (HCOOH): 3.70 |
| Cc1cc(-n2nc(C)c(-c3c(F)cccc3Cl)c2N)ccc1C(=O)NCC(F)(F)C(F)F [I-A-Q2-334] | I-A-Q2-334: log P (HCOOH): 2.59 |
| Nc1c(-c2ccc(Cl)cc2)c(C(F)(F)F)nn1-c1ccc(C(=O)NCC(F)F)cc1 [I-A-Q2-164] | I-A-Q2-164: log P (HCOOH): 3.27 |
| Cc1cc(CNC(=O)c2ccc(-n3nc(C(F)(F)F)c(-c4cc(Cl)cc(Cl)c4)c3N)cc2C)n(C)n1 [I-A-Q2-254] | I-A-Q2-254: log P (HCOOH): 3.58 |
| COC(=O)CNC(=O)c1ccc(-n2nc(C(F)(F)F)c(-c3cc(Cl)cc(Cl)c3)c2N)cc1C [I-A-Q2-030] | I-A-Q2-030: log P (HCOOH): 3.68 |
| Cc1cc(-n2nc(C(F)(F)F)c(Br)c2N)ccc1C(=O)O [XI-A-086] | XI-A-086: log P (HCOOH): 2.54 |
| CC(NC(=O)c1ccc(-n2nc(C(F)(F)F)c(-c3cccc(F)c3)c2N)cc1)c1ccccn1 (stereo not shown) [I-A-Q2-186] | I-A-Q2-186: log P (HCOOH): 2.42 |
| CNC(=O)c1ccc(-n2nc(C(F)(F)F)c(-c3ccc(Cl)cc3)c2N)cc1 [I-A-Q2-195] | I-A-Q2-195: log P (HCOOH): 2.96 |
| Cc1cc(-n2nc(C(F)(F)Cl)c(-c3cc(Cl)cc(C(F)(F)F)c3)c2N)ccc1C(=O)NCc1ccccn1 [I-A-Q2-364] | I-A-Q2-364: log P (HCOOH): 3.53 |
| Cc1cc(-n2nc(C(F)(F)OC(F)(F)C(F)(F)OC(F)(F)F)c(-c3cc(Cl)cc(C(F)(F)F)c3)c2N)ccc1C(=O)NCC(F)(F)C(F)F [I-A-Q2-287] | I-A-Q2-287: log P (HCOOH): 5.33 |
| Cc1cc(-n2nc(C(F)(F)F)c(-c3cccc(F)c3)c2N)ccc1C(=O)NCc1ccccn1 [I-A-Q2-354] | I-A-Q2-354: log P (HCOOH): 2.31 |
| Cc1cc(-n2nc(C(F)(F)F)c(-c3cc(Cl)cc(Cl)c3)c2N)ccc1C(=O)NCc1ccccc1F [I-A-Q2-112] | I-A-Q2-112: log P (HCOOH): 4.34 |

| SMILES | log P (HCOOH) |
| --- | --- |
| Cc1cc(-n2nc(C(F)(F)F)c(-c3cc(Cl)cc(Cl)c3)c2N)ccc1C(=O)NCCc1ccccc1 [I-A-Q2-050] | I-A-Q2-050: log P (HCOOH): 4.64 |
| CCCc1nn(-c2ccc(C(=O)NCc3ccccn3)c(C)c2)c(N)c1-c1ccc(Cl)cc1 [I-A-Q2-380] | I-A-Q2-380: log P (HCOOH): 2.53 |
| Cc1cc(-n2nc(C(F)(F)F)c(-c3cc(Cl)cc(Cl)c3)c2N)ccc1C(=O)NC(CC(F)(F)F)C(F)(F)F (stereo not shown) [I-A-Q2-217] | I-A-Q2-217: log P (HCOOH): 4.70 |
| Cc1cc(-n2nc(C(F)(F)F)c(-c3cc(Cl)cc(Cl)c3)c2N)ccc1C(=O)NC(C)C [I-A-Q2-229] | I-A-Q2-229: log P (HCOOH): 4.05 |
| Cc1cc(-n2nc(C(F)(F)F)c(-c3cc(Cl)cc(Cl)c3)c2N)ccc1C(=O)NCCc1ncc(C(F)(F)F)cc1Cl [I-A-Q2-232] | I-A-Q2-232: log P (HCOOH): 4.95 |
| Cc1cc(-n2nc(C)c(-c3ccccc3Cl)c2N)ccc1C(=O)NCc1ccccn1 [I-A-Q2-373] | I-A-Q2-373: log P (HCOOH): 1.64 |
| Cc1nc(CNC(=O)c2ccc(-n3nc(C(F)(F)F)c(-c4cc(Cl)cc(Cl)c4)c3N)cc2C)cs1 [I-A-Q2-041] | I-A-Q2-041: log P (HCOOH): 3.94 |
| Cc1cc(-n2nc(C(F)(F)F)c(-c3cc(F)c(F)c(F)c3)c2N)ccc1C(=O)NCc1ccccn1 [I-A-Q2-358] | I-A-Q2-358: log P (HCOOH): 2.80 |
| COC(C)c1nn(-c2ccc(C(=O)NCC(F)(F)C(F)F)c(C)c2)c(N)c1-c1cc(Cl)cc(C(F)(F)F)c1 (stereo not shown) [I-A-Q2-291] | I-A-Q2-291: log P (HCOOH): 3.84 |
| Cc1cc(-n2nc(C(F)(F)F)c(-c3cc(Cl)cc(Cl)c3)c2N)ccc1C(=O)NCc1cccc(Br)n1 [I-A-Q2-253] | I-A-Q2-253: log P (HCOOH): 4.40 |
| Cc1cc(-n2nc(C(F)(F)F)c(-c3cc(Cl)cc(Cl)c3)c2N)ccc1C(=O)N(Cc1ccccn1)C1CC1 [I-A-Q2-111] | I-A-Q2-111: log P (HCOOH): 4.17 |
| CC(NC(=O)c1ccc(-n2nc(-c3ccccc3)c(-c3ccc(Cl)cc3)c2N)cc1)C(F)(F)F (stereo not shown) [I-A-Q2-075] | I-A-Q2-075: log P (HCOOH): 3.94 |
| Cc1cc(-n2nc(C)c(-c3ccc(F)cc3F)c2N)ccc1C(=O)NCc1ccccn1 [I-A-Q2-370] | I-A-Q2-370: log P (HCOOH): 1.64 |
| Cc1cc(-n2nc(C)c(-c3ccc(Cl)c(Cl)c3)c2N)ccc1C(=O)NCc1ccccn1 [I-A-Q2-365] | I-A-Q2-365: log P (HCOOH): 2.27 |
| Cc1cc(-n2nc(C(F)(F)F)c(-c3ccccc3Cl)c2N)ccc1C(=O)NCC(F)(F)C(F)F [I-A-Q2-308] | I-A-Q2-308: log P (HCOOH): 3.23 |
| CC(NC(=O)c1ccc(-n2nc(C(F)(F)F)c(-c3cc(Cl)cc(C(F)(F)F)c3)c2N)cc1)C(F)(F)F (stereo not shown) [I-A-Q2-095] | I-A-Q2-095: log P (HCOOH): 4.51 |
| Cc1cc(-n2nc(C(F)(F)F)c(-c3cccc(Br)c3)c2N)ccc1C(=O)NCC(F)(F)C(F)F [I-A-Q2-314] | I-A-Q2-314: log P (HCOOH): 3.65 |
| Nc1c(-c2ccc(Cl)c(Cl)c2)c(C(F)(F)F)nn1-c1ccc(C(=O)NCc2ccccn2)cc1 [I-A-Q2-158] | I-A-Q2-158: log P (HCOOH): 2.85 |
| Cc1cc(-n2nc(C(F)(F)F)c(-c3cc(Cl)cc(Cl)c3)c2N)ccc1C(=O)NC(C)(C)C [I-A-Q2-221] | I-A-Q2-221: log P (HCOOH): 4.51 |
| Cc1cc(-n2nc(C)c(-c3ccc(Cl)cc3)c2N)ccc1C(=O)NCC(F)(F)C(F)F [I-A-Q2-330] | I-A-Q2-330: log P (HCOOH): 3.12 |

Same assay, conditions: HCOOH; Table 4, compounds of formula I-A-Q4

| SMILES | log P (HCOOH) |
| --- | --- |
| CCOC(=O)c1ccc(-n2nc(C(F)(F)F)c(-c3ccc(Cl)cc3Cl)c2N)cc1 [I-A-Q4-085] | I-A-Q4-085: log P (HCOOH): 4.57 |
| Cc1nn(-c2ccc(Cl)cn2)c(N)c1-c1ccc(F)cc1F [I-A-Q4-035] | I-A-Q4-035: log P (HCOOH): 3.78 |
| Cc1ccccc1-c1c(C(F)(F)F)nn(-c2ccc(C(=O)O)cc2)c1N [I-A-Q4-101] | I-A-Q4-101: log P (HCOOH): 2.94 |
| Nc1c(-c2cccc(Br)c2)c(C(F)(F)F)nn1-c1ccc(C(=O)O)cc1 [I-A-Q4-091] | I-A-Q4-091: log P (HCOOH): 3.29 |
| N#Cc1cc(-n2nc(C(F)(F)F)c(-c3cc(Cl)cc(Cl)c3)c2N)ccc1S(=O)(=O)NCC(F)(F)F [I-A-Q4-123] | I-A-Q4-123: log P (HCOOH): 4.41 |
| Nc1c(-c2cc(Cl)cc(Cl)c2)c(C(F)(F)F)nn1-c1ccc(F)c(C(F)(F)F)c1 [I-A-Q4-105] | I-A-Q4-105: log P (HCOOH): 5.25 |
| Cc1nn(-c2ccc(Cl)cn2)c(N)c1-c1ccc(Cl)cc1Cl [I-A-Q4-021] | I-A-Q4-021: log P (HCOOH): 4.70 |
| Nc1c(-c2ccc(Br)cc2)c(C(F)(F)F)nn1-c1ccc(Cl)cn1 [I-A-Q4-042] | I-A-Q4-042: log P (HCOOH): 5.22 |
| Nc1c(-c2ccc(Cl)cc2)c(C(F)F)nn1-c1ccc(Cl)cn1 [I-A-Q4-057] | I-A-Q4-057: log P (HCOOH): 4.45 |
| Nc1c(-c2cc(Cl)cc(Cl)c2)c(C(F)(F)F)nn1-c1ccc(C(=O)O)c(C(F)(F)F)c1 [I-A-Q4-115] | I-A-Q4-115: log P (HCOOH): 4.22 |

Same assay, conditions: HCOOH; compounds of the formula (IX), Table 11

| SMILES | log P (HCOOH) |
| --- | --- |
| Nc1[nH]nc(C(F)(F)F)c1-c1ccc(Cl)c(Cl)c1 [IX-38] | IX-38: log P (HCOOH): 2.80 |

Same assay, conditions: HPLC, reversed-phase C18, mobile phase with formic acid

| SMILES | log P (HCOOH) |
| --- | --- |
| Cc1nn(-c2ccc(-n3cncn3)c(C#N)c2)c(N)c1-c1ccc(Cl)cc1 [I-A-Q1-029] | I-A-Q1-029: log P (HCOOH): 2.65 |
| Cc1nn(-c2ccc(-n3cncn3)c(C#N)c2)c(N)c1-c1ccccc1 [I-A-Q1-066] | I-A-Q1-066: log P (HCOOH): 2.14 |
| N#Cc1cc(-n2nc(C(F)(F)F)c(-c3ccc(Cl)cc3Cl)c2N)ccc1-n1cncn1 [I-A-Q1-045] | I-A-Q1-045: log P (HCOOH): 2.64 |
| N#Cc1cc(-n2nc(C(F)(F)F)c(-c3ccc(I)cc3)c2N)ccc1-n1cncn1 [I-A-Q1-043] | I-A-Q1-043: log P (HCOOH): 3.61 |
| Nc1c(-c2cc(Cl)cc(Cl)c2)c(C(F)(F)F)nn1-c1ccc(-n2cncn2)c(C(F)(F)F)c1 [I-A-Q1-068] | I-A-Q1-068: log P (HCOOH): 4.32 |
| Cc1nn(-c2ccc(-n3cncn3)c(C#N)c2)c(N)c1-c1cccc(Cl)c1 [I-A-Q1-053] | I-A-Q1-053: log P (HCOOH): 2.66 |
| N#Cc1cc(-n2nc(C(F)(F)Oc3cccc(Cl)c3)c(-c3cc(Cl)cc(C(F)(F)F)c3)c2N)ccc1-n1cncn1 [I-A-Q1-072] | I-A-Q1-072: log P (HCOOH): 4.82 |
| N#Cc1cc(-n2nc(C(F)(F)F)c(-c3ccc(Cl)c(F)c3)c2N)ccc1-n1cncn1 [I-A-Q1-032] | I-A-Q1-032: log P (HCOOH): 3.28 |
| N#Cc1cc(-n2nc(C(F)(F)Oc3ccccc3Cl)c(-c3cc(Cl)cc(C(F)(F)F)c3)c2N)ccc1-n1cncn1 [I-A-Q1-073] | I-A-Q1-073: log P (HCOOH): 4.51 |

Same assay, conditions: HPLC, reversed-phase C18, mobile phase with formic acid; read-out: log P (HCOOH)

| SMILES | chromatographic logP |
| --- | --- |
| COC(=O)c1ccc(NN)cc1C [VII-A-008, Methyl 4-hydrazino-2-methylbenzoate] | 0.4 |
